According to article PMC8698521 (RSC Advances, 2021):

What was measured:
Test in all cases: Glycosidase inhibition, spectrophotometric p-nitrophenyl glycoside assay
[1] = target: α-Glucosidase from Saccharomyces cerevisiae (Saccharomyces cerevisiae, UniProt P53341); conditions: pH 7.2, read-out: Percentage inhibition (%) at 1 mM concentration of the inhibitor
[2] = target: T1, α-Mannosidase from jack bean (Canavalia ensiformis, UniProt C0HJB3); conditions: for inhibition at 1000 µM: pH 4.5, read-out: Percentage inhibition (%) at 1 mM concentration of the inhibitor
T1 sequence (C0HJB3 1-981): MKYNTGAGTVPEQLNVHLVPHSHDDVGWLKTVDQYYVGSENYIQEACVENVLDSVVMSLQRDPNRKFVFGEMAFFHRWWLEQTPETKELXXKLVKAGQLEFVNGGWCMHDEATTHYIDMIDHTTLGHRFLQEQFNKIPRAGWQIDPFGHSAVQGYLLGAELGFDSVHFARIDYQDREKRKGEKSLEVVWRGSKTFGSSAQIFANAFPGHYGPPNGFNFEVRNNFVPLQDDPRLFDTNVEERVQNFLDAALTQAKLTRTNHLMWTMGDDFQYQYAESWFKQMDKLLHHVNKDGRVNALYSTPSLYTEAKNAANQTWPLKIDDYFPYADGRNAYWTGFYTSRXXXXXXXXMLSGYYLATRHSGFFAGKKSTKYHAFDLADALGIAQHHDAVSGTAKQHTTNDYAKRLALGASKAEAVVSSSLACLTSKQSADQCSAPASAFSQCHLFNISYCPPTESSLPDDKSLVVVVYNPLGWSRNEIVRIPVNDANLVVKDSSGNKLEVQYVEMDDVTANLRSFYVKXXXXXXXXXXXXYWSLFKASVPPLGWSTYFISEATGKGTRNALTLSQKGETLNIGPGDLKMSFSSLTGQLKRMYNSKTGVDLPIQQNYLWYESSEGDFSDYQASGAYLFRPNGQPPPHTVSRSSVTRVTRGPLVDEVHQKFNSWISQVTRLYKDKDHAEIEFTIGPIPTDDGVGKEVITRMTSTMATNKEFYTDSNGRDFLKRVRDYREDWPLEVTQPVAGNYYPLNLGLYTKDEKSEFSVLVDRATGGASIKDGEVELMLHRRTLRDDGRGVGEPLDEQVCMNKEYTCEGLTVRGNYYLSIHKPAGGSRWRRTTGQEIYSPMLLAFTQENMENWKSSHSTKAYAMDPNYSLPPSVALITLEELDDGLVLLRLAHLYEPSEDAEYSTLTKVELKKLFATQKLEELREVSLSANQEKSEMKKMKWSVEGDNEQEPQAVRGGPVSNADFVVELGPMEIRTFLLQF

[3] = target: α-Galactosidase from green coffee beans (Coffea arabica, UniProt Q42656)
[4] = system: β-Glucosidase from almonds; conditions: 1 mM inhibitor; 37 °C, 30 min; NI = no inhibition up to 20 mM
[5] = system: β-Mannosidase from Helix pomatia
[6] = target: T2, β-Galactosidase from Aspergillus oryzae (Aspergillus oryzae, UniProt Q2UCU3)
T2 sequence (Q2UCU3 19-1005): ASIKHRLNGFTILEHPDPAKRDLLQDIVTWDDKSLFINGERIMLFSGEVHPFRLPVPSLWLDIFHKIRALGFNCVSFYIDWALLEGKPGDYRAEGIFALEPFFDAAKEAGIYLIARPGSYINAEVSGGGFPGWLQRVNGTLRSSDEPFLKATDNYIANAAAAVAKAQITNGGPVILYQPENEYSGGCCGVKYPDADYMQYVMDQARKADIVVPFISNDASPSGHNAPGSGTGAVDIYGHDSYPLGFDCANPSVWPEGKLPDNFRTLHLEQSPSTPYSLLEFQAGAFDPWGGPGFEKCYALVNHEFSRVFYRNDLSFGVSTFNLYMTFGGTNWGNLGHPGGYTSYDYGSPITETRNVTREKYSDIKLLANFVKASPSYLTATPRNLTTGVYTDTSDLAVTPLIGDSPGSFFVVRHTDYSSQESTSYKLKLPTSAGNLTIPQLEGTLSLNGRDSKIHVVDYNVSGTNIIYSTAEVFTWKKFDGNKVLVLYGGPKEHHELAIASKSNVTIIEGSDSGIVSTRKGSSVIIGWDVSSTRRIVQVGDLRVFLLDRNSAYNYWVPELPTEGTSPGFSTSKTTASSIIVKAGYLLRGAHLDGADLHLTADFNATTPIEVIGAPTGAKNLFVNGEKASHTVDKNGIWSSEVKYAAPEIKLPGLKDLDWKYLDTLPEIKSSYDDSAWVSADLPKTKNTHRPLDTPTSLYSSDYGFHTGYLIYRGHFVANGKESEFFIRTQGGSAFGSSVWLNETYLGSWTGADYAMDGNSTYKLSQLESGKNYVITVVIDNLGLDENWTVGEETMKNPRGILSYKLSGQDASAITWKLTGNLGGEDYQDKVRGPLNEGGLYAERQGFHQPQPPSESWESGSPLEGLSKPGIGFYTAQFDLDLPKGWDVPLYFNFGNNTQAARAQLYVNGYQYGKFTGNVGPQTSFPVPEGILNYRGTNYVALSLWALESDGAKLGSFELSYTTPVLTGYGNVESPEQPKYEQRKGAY

Chain of α-Glucosidase from Saccharomyces cerevisiae (P53341 whole entry): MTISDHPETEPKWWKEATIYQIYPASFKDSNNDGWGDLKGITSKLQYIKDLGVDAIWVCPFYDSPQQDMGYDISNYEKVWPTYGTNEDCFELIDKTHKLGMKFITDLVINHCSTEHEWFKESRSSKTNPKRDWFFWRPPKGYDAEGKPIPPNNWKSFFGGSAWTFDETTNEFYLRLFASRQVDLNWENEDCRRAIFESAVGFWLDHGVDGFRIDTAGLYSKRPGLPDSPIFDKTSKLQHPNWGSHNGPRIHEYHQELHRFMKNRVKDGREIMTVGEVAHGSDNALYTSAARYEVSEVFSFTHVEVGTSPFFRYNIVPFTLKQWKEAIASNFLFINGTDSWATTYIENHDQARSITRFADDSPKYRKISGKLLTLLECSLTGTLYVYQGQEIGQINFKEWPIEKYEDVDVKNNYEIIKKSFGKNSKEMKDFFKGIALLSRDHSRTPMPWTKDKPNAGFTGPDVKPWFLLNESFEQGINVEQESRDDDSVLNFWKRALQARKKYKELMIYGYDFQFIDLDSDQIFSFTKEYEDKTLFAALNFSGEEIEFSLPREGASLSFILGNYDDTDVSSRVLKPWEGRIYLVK
Chain of α-Galactosidase from green coffee beans (Q42656 16-378): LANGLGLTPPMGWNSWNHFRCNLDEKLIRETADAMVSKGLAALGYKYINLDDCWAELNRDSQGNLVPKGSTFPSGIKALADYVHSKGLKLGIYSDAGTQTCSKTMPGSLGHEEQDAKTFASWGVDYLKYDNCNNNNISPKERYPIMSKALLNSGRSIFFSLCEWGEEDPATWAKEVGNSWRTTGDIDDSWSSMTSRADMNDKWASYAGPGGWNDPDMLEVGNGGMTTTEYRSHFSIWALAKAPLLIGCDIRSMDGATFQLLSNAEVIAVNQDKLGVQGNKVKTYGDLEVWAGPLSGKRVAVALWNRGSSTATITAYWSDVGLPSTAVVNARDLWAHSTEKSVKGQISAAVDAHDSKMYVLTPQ

SMILES	inhibition at 1000 µM [1]	inhibition as stated in text [2]	inhibition at 1000 µM [2]	inhibition as stated in text [3]	inhibition at 1000 µM ([3]; pH 6.8, read-out: Percentage inhibition (%) at 1 mM concentration of the inhibitor)	Percentage inhibition (%) at 1 mM concentration of the inhibitor [4]	inhibition as stated in text [5]	inhibition as stated in text [6]	inhibition at 1000 µM ([6]; pH 7.2, read-out: Percentage inhibition (%) at 1 mM concentration of the inhibitor)
C[C@@H]1CC[C@@H](O)[C@@H](O)[C@@H](O)[C@@H]1O [Compound 16, (1R,2R,3S,4R,5R)-5-Methylcycloheptane-1,2,3,4-tetraol]		inhibited	35.1%			29.8%		inhibits	12.8%
C[C@H]1CC[C@@H](O)[C@@H](O)[C@@H](O)[C@@H]1O [Compound 15, (1R,2R,3S,4R,5S)-5-Methylcycloheptane-1,2,3,4-tetraol]	19.5%	inhibited	10.6%			14.1%			

Next, values leading:

inhibition at 1000 µM [1]	inhibition as stated in text [2]	inhibition at 1000 µM [2]	inhibition as stated in text [3]	inhibition at 1000 µM ([3]; pH 6.8, read-out: Percentage inhibition (%) at 1 mM concentration of the inhibitor)	Percentage inhibition (%) at 1 mM concentration of the inhibitor [4]	inhibition as stated in text [5]	inhibition as stated in text [6]	inhibition at 1000 µM ([6]; pH 7.2, read-out: Percentage inhibition (%) at 1 mM concentration of the inhibitor)	SMILES
3.3%	inhibited	12.5%							OCC1=CC[C@H](O)[C@@H](O)[C@@H](O)[C@@H]1O [Compound 5, (1S,2R,3S,4R)-5-(Hydroxymethyl)cyclohept-5-ene-1,2,3,4-tetraol]
22.1%			inhibited	41.7%	3.2%				OCC1=CC[C@@H](O)[C@@H](O)[C@@H](O)[C@@H]1O [Compound 6, (1R,2R,3S,4R)-5-(Hydroxymethyl)cyclohept-5-ene-1,2,3,4-tetraol]
41.1%					12.3%	could inhibit			O=C1CC=C(CO)[C@@H](O)[C@H](O)[C@@H]1O [Compound 4, (5R,6S,7S)-5,6,7-Trihydroxy-4-(hydroxymethyl)cyclohept-3-enone]
